Each block holds one molecule with its values, some of them ahead of it.
What was measured:
[1] = target: T1, mTor (Homo sapiens, UniProt P42345); test: Kinase inhibition assay, mTor; type: biochemical
T1 construct: Purified kinase domains (e.g. mTor, P110α, P110β, P110γ, P110δ, PI4Kβ, DNA-PK, PKCα, PKCβ1, PKCβII, RET, and JAK2)

[2] = target: T2, PI3K α (Homo sapiens, UniProt P42336); test: Kinase inhibition assay, PI3K α; type: biochemical
T2 construct: Purified kinase domains (e.g. mTor, P110α, P110β, P110γ, P110δ, PI4Kβ, DNA-PK, PKCα, PKCβ1, PKCβII, RET, and JAK2)

[3] = tested on: PC3 cells; test: Inhibition of proliferation of PC3 cells; type: cell-based; settings: Homo sapiens, PC-3
[4] = target: T3, PI3K β (Homo sapiens, UniProt P42338); test: Kinase inhibition assay, PI3K β; type: biochemical
T3 construct: Purified kinase domains (e.g. mTor, P110α, P110β, P110γ, P110δ, PI4Kβ, DNA-PK, PKCα, PKCβ1, PKCβII, RET, and JAK2)

[5] = target: T4, PI3K γ (Homo sapiens, UniProt P48736); test: Kinase inhibition assay, PI3K γ; type: biochemical
T4 construct: Purified kinase domains (e.g. mTor, P110α, P110β, P110γ, P110δ, PI4Kβ, DNA-PK, PKCα, PKCβ1, PKCβII, RET, and JAK2)

[6] = target: T5, PI3K δ (Homo sapiens, UniProt O00329); test: Kinase inhibition assay, PI3K δ; type: biochemical
T5 construct: Purified kinase domains (e.g. mTor, P110α, P110β, P110γ, P110δ, PI4Kβ, DNA-PK, PKCα, PKCβ1, PKCβII, RET, and JAK2)

[7] = tested on: p190 transduced cells; test: MTS viability assay of p190 transduced cells; type: cell-based, murine
[8] = tested on: p190 transduced cells; test: Combination with imatinib on p190 transduced cells (MTS, combination index); type: cell-based, murine
[9] = tested on: p190 BCR-Abl transformed bone marrow cells; test: Colony forming assay with p190 BCR-Abl transformed murine bone marrow cells; type: cell-based; settings: compared to rapamycin; FIG. 17
[10] = tested on: ENaC-dependent Na+ current; test: ENaC-dependent Na+ transport in mpkCCD cells; settings: prolonged treatment (>24 h)
[11] = tested on: CD19+ CD34+ B cell progenitors from Ph+ and Ph− patients; test: Colony forming assay with human B-ALL cells; type: cell-based; settings: about 50 nM dasatinib; FIG. 18
[12] = tested on: p190 leukemic cells; test: Syngenic mouse leukemia transplant model (p190); type: in vivo, Balb/c mice; settings: for number of cycling leukemic blasts / apoptosis of leukemic blast cells: bone marrow and spleen; for number of cycling leukemic blasts: FIG. 23; for apoptosis of leukemic blast cells: FIG. 24
Method: The murine bone marrow infection/transplantation method was used to determine the effect of kinase inhibitors on disregulated cellular proliferation […]. The MSCV-p190-BCR-Abl-Ires-GFP (MIG-p190) or MSCV-p190-BCR-Abl-Ires-hCD4Δtail (MIC-p190) retroviral vectors were assembled in 293T cells and used to transduce bone marrow cells. The GFP and CD4Δtail markers allow quantitation by FACS analysis and/or enrichment by magnetic sorting of transduced cells.
These cells were administered together with a radioprotective dose of about 5×10^6 normal bone marrow cells from 3-5 week old donor Balb/c mice. […] Mice who became sick after about 14 days were euthanized and lymphoid organs were harvested for analysis. Kinase inhibitor treatment began about 10 days after leukemic cell injection and continued daily until the mice became sick or a maximum of approximately 35 days post-transplant. Inhibitors were given by oral lavage.
Peripheral blood cells were collected approximately on day 10 (pre-treatment) and upon euthanization (post treatment), contacted with labeled anti-hCD4 antibodies and counted by flow cytometry.
Mice were injected with the BrdU analogue EdU and sacrificed. Bone marrow and spleen were collected, blast cells were harvested from the tissue, and stained with antibodies to hCD4, and analyzed by flow cytomtery.
Bone marrow and spleen were collected, blast cells were harvested from the tissue, and stained with antibodies to hCD4, Annexin V, and 7AAD, and analyzed by flow cytometry. […] The results also show significant increase at the concentrations examined in induction of apoptosis at the concentrations examined of imatinib in combination with rapamycin or PI-103.

[13] = tested on: Akt phosphorylation (S473, T308) in L6 myotubes; test: Akt phosphorylation in insulin stimulated L6 myotubes (immunoblot); type: cell-based; settings: 100 nM insulin, FIG. 3
Method: L6 myoblasts were grown typically grown in DMEM supplemented with about 10% FBS, glutamine and penicillin/streptomycin. Confluent L6 myoblasts were differentiated into mytubes by culturing them for approximately 5 days in media containing about 2% FBS. L6 myotubes were maintained in media containing approximately 2% FBS until use.
In order to compare the effect of TORKinibs and PIK-90 on Akt phosphorylation, L6 myotubes were serum starved overnight and incubated with inhibitors or about 0.1% DMSO for approximately 30 minutes prior to stimulation with insulin (e.g. 100 nM) for about 10 minutes. Cells were lysed by scraping into ice cold lysis buffer (generally: 300 mM NaCl, 50 mM Tris pH 7.5, 5 mM EDTA, 1% TRITON™ X-100, 0.02% NaN3, 20 nM microcystin, Sigma phosphatase inhibitor cocktails 1 and 2, Roche protease inhibitor cocktail and 2 mM PMSF). After contacting cells with lysis buffer, the solution was briefly sonicated. Lysates were cleared by centrifugation, resolved by SDS-PAGE, transferred to nitrocellulose and immunoblotted using antibodies to phospho-Akt S473, phospho-Akt T308, Akt, and β-actin (Cell Signaling Technologies).

[14] = tested on: Akt phosphorylation (S473, T308) in MEFs; test: Akt phosphorylation in wild-type and SIN1−/− mouse embryonic fibroblasts (immunoblot); type: cell-based; settings: SIN1−/− MEFs
Method: Wild-type and SIN1−/− primary mouse embryonic fibroblasts (MEFs) were grown in DMEM supplemented with about 10% FBS, glutamine and penicillin/streptomycin. MEFs were treated with TORKinib at about 2.5, 0.63, and 0.16 uM; rapamycin at approximately 15 nM; or PIK-90 at 625 nM for 30 minutes prior to insulin stimulation (e.g. 100 nM) for 10 minutes. Cells were lysed by scraping into ice cold lysis buffer (typically 300 mM NaCl, 50 mM Tris pH 7.5, 5 mM EDTA, 1% TRITON™ X-100, 0.02% NaN3, 20 nM microcystin, Sigma phosphatase inhibitor cocktails 1 and 2, Roche protease inhibitor cocktail and 2 mM PMSF). After contacting cells with lysis buffer, the solution was briefly sonicated. Lysates were cleared by centrifugation, resolved by SDS-PAGE, transferred to nitrocellulose and immunoblotted using antibodies to phospho-Akt S473, phospho-Akt T308, Akt, and β-actin (Cell Signaling Technologies).

[15] = tested on: Akt substrates (GSK3, TSC2, FoxO1/O3a) in L6 myotubes; test: Phosphorylation of Akt substrates in insulin stimulated L6 myotubes; type: cell-based; settings: FIG. 6
[16] = tested on: S6K, S6, 4EBP1 phosphorylation in L6 myotubes; test: Phosphorylation of S6K, S6 and 4EBP1 in insulin stimulated L6 myotubes; type: cell-based
[17] = target: T6, PKCα (Homo sapiens, UniProt P17252); test: Kinase inhibition assay, PKCα; type: biochemical; settings: at about 1 μM or less
T6 construct: Purified kinase domains (e.g. mTor, P110α, P110β, P110γ, P110δ, PI4Kβ, DNA-PK, PKCα, PKCβ1, PKCβII, RET, and JAK2)

[18] = tested on: AML; test: Colony assay using AML specimens; type: cell-based, Human; settings: expected
Method: Human Ph− B-ALL and AML specimens are obtained. Ph− B-ALL and AML are cytogenetically diverse, with diverse therapeutic regimens currently in use depending on patient risk factors. The majority of Ph− B-ALL patients are treated initially with a combination of three drugs: glucocorticoid (e.g. dexamethasone), vincristine, and asparaginase or anthracycline (e.g. daunorubicin). Most AML patients receive an anthracycline only. Pilot experiments with 3 patient samples are conducted to determine concentrations of vincristine (Ph− ALL) or daunorubicin (AML) that partially reduce colony formation in methylcellulose. It is expected that these drugs are effective in the range of 0.1-1 μM (vincristine) and 3-30 nM (daunorubicin). Optionally, the Ph-ALL assays may be supplemented with dexamethasone and/or daunorubicin.

[19] = tested on: cap-dependent translation; test: Cap-dependent translation, m7GTP affinity, p190 cells; type: cell-based; settings: IM at 5 μM; FIG. 38D
[20] = tested on: myristolated-Akt transgenic thymocytes tumors; test: Akt murine allograft tumor model; type: in vivo, NOD/SCID mice; settings: after 20 days of treatment
[21] = tested on: Ph− B-ALL; test: Colony assay using Ph− B-ALL specimens; type: cell-based, Human; settings: expected

T2 sequence (P42336 765-1051 limits assumed): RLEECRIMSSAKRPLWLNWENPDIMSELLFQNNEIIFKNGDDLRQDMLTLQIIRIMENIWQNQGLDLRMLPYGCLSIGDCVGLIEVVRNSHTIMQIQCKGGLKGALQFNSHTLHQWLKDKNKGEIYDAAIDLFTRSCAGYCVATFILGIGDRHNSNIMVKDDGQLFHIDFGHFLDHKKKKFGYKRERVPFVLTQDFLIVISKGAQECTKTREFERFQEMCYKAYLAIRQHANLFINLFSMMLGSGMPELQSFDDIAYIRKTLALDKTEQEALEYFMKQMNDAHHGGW
T2 sequence (P27986 whole entry partner, the tested form may be a part): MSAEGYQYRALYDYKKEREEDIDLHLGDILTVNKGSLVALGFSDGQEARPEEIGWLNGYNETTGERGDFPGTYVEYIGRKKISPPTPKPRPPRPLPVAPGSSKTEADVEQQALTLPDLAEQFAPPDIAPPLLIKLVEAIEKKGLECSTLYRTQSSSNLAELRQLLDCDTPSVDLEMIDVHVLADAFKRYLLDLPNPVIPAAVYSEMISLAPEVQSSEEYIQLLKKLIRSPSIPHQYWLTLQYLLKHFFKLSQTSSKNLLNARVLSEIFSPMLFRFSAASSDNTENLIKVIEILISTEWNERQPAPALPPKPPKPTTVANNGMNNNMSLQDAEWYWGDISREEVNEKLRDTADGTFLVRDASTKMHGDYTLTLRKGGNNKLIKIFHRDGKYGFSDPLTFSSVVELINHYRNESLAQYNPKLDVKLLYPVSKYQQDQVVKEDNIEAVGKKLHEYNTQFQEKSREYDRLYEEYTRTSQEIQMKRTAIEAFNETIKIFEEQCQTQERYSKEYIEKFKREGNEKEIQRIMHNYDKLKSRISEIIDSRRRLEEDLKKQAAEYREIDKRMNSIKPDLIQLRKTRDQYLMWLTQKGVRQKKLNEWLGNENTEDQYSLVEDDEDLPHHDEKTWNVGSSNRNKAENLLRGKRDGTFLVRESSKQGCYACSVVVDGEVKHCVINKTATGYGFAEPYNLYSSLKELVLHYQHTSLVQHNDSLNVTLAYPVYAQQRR
T1 sequence (P42345 2156-2469 limits assumed): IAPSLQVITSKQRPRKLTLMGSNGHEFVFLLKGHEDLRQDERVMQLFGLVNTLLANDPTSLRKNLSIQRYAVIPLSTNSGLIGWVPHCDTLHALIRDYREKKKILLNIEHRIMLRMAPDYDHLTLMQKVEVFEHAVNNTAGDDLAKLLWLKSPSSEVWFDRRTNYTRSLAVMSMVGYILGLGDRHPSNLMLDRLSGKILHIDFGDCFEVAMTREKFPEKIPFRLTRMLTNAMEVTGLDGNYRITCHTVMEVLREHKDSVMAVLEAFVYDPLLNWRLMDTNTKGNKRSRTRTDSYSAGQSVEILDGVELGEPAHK
T5 sequence (O00329 745-1027 limits assumed): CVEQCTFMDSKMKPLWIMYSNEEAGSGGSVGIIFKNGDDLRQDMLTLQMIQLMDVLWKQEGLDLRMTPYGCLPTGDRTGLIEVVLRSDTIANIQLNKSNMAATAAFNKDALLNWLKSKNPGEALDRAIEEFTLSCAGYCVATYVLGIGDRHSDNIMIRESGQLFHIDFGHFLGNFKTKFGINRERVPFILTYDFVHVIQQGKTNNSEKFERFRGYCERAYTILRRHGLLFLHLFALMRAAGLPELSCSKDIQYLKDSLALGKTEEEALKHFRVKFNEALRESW
T5 sequence (P27986 whole entry partner, the tested form may be a part): as the sequence (P27986 whole entry partner, the tested form may be a part) above
T3 sequence (P42338 772-1053 limits assumed): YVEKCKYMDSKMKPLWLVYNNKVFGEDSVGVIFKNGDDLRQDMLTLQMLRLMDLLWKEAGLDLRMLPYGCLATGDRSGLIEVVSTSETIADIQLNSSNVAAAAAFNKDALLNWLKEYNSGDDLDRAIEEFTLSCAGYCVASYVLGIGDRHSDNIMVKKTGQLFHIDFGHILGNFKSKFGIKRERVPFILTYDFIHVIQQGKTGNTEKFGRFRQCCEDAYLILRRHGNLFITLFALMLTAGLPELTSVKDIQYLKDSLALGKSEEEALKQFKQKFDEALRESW
T3 sequence (P27986 whole entry partner, the tested form may be a part): as the sequence (P27986 whole entry partner, the tested form may be a part) above
T4 sequence (P48736 797-1080 limits assumed): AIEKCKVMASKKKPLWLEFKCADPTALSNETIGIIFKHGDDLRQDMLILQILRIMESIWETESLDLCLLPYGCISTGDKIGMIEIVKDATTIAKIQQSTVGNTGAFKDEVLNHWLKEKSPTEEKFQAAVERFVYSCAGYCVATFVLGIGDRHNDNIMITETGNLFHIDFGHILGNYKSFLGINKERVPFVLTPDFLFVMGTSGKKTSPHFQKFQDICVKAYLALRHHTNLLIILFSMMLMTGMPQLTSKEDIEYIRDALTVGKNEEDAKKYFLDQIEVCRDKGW

IC50 [1]: 79 nM
IC50 [2]: 11200 nM
IC50 [3]: 2060 nM
SMILES: CC(C)n1nc(-c2cc3ccccc3[nH]2)c2c(N)ncnc21

IC50 [1]: 0.7 nM
IC50 [2]: 3460 nM
IC50 [4]: 3580 nM
IC50 [5]: 450 nM
IC50 [6]: 330 nM
IC50 [3]: 38 nM
SMILES: CC(C)n1nc(-c2cc3cccc(O)c3[nH]2)c2c(N)ncnc21

IC50 [1]: 26 nM
IC50 [2]: 279 nM
IC50 [4]: 2160 nM
IC50 [5]: 115 nM
IC50 [6]: 395 nM
IC50 [3]: 1000 nM
SMILES: CC(C)n1nc(-c2cc3ccc(O)cc3[nH]2)c2c(N)ncnc21

IC50 [1]: 14 nM
IC50 [2]: 5750 nM
IC50 [4]: 25000 nM
IC50 [6]: 9800 nM
IC50 [3]: 11800 nM
SMILES: CC(=O)N1CCC(n2nc(-c3cc4cc(O)ccc4[nH]3)c3c(N)ncnc32)CC1

SMILES: Cn1c(=O)n(-c2ccc(C(C)(C)C#N)cc2)c2c3cc(-c4cnc5ccccc5c4)ccc3ncc21 [BEZ235]
IC50 ([7]; Mus musculus, stated as treatment concentration = IC50): ~5 nM
synergy with imatinib (combination index) ([8]; over a broad dose range, FIG. 16): moderate to strong synergy
colony forming activity in combination with imatinib [9]: potentiate the effects of a half maximal concentration of imatinib

SMILES: Cc1ccccc1-n1c(Cn2cnc3c(N)ncnc32)nc2cccc(C)c2c1=O [IC87114]
type of effect on cell viability ([7]; plateau at high concentrations, 48 hrs): primarily cytostatic

SMILES: O=c1cc(N2CCOCC2)oc2c(-c3ccccc3)cccc12 [LY294002, reference compound]
toxic effect of prolonged treatment [10]: diminishes electrical resistance and causes morphological changes

SMILES: Oc1cccc(-c2nc(N3CCOCC3)c3oc4ncccc4c3n2)c1 [PI-103]
effect on anti-proliferative effects of imatinib ([8]; 48 hrs MTS, FIG. 19): potentiate the anti-proliferative effects of imatinib
combination index with imatinib ([8]; over a broad dose range, FIG. 20): more synergistic than rapamycin
colony formation in combination with dasatinib [11]: stronger effect of dasatinib-PI-103 combination as compared to dasatinib-rapamycin combination
number of cycling leukemic blasts [12]: significantly reduced the number of cycling leukemic blasts
apoptosis of leukemic blast cells [12]: induction of apoptosis in leukemic blast cells

SMILES: COc1ccc2c(c1OC)N=C(NC(=O)c1cccnc1)N1CCN=C21 [PIK-90, reference compound]
insulin stimulated phosphorylation of Akt at S473 and T308 [13]: inhibit the phosphorylation of both Akt sites equipotently
phosphorylation of Akt T308 [14]: blocks phosphorylation of T308
phosphorylation of Akt and its substrates [15]: completely inhibited
phosphorylation of 4EBP1 at T37/46 [16]: does not reduce

SMILES: CC(C)n1nc(-c2cccc(C(=O)NC3=NCCS3)c2)c2c(N)ncnc21 [PP30]
inhibition of PKCα [17]: does not inhibit PKCα significantly
insulin stimulated phosphorylation of Akt at S473 and T308 [13]: inhibit insulin stimulated phosphorylation of Akt at S473
phosphorylation of 4EBP1 at T37/46 [16]: able to inhibit

SMILES: COc1cccc2c1C(=O)c1c(O)c3c(c(O)c1C2=O)C[C@@](O)(C(C)=O)C[C@@H]3O[C@H]1C[C@H](N)[C@H](O)[C@H](C)O1 [daunorubicin]
effective range, partial reduction of colony formation [18]: 3 to 30 nM

SMILES: Cc1ccc(NC(=O)c2ccc(CN3CCN(C)CC3)cc2)cc1Nc1nccc(-c2cccnc2)n1 [imatinib]
number of cycling leukemic blasts [12]: significantly reduced the number of cycling leukemic blasts
apoptosis of leukemic blast cells [12]: induction of apoptosis in leukemic blast cells
splenomegaly ([12]; oral lavage daily, FIG. 21): significant decrease in splenomegaly
cap-dependent translation [19]: inhibit cap-dependent translation

SMILES: CO[C@H]1C[C@@H]2CC[C@@H](C)[C@@](O)(O2)C(=O)C(=O)N2CCCC[C@H]2C(=O)O[C@H]([C@H](C)C[C@@H]2CC[C@@H](O)[C@H](OC)C2)CC(=O)[C@H](C)/C=C(\C)[C@@H](O)[C@@H](OC)C(=O)[C@H](C)C[C@H](C)/C=C/C=C/C=C/1C [rapamycin, reference compound]
body weight [20]: maintained body weight

SMILES: CC[C@]1(O)C[C@H]2CN(CCc3c([nH]c4ccccc34)[C@@](C(=O)OC)(c3cc4c(cc3OC)N(C=O)[C@H]3[C@@](O)(C(=O)OC)[C@H](OC(C)=O)[C@]5(CC)C=CCN6CC[C@]43[C@@H]65)C2)C1 [vincristine, reference compound]
effective range, partial reduction of colony formation [21]: 0.1 to 1 µM

Source: patent US9629843B2, “MTOR modulators and uses thereof” (The Regents of the University of California, priority 2008, dated 2017)
